In ChEMBL document CHEMBL1143228, “Inhibition of lipopolysaccharide-induced inducible nitric oxide synthase and cyclooxygenase-2 expression by xanthanolides isolated from Xanthium strumarium” (Bioorg Med Chem Lett, 2008):
Active and inactive are the calls of the source. The rule behind the calls is not given here.

Legend:
[1] = system: BV-2; experiment: Inhibition of NO production in LPS-activated mouse BV2 cells by […]; type: functional, cell-based
[2] = system: BV-2; experiment: Inhibition of COX2 mRNA expression in LPS-stimulated mouse BV2 cells at 20 uM after 4 hrs by RT-PCR; type: functional, cell-based
[3] = system: BV-2; experiment: Inhibition of iNOS mRNA expression in LPS-stimulated mouse BV2 cells at 20 uM after 4 hrs by RT-PCR; type: functional, cell-based
[4] = system: BV-2; experiment: Inhibition of COX2 expression in LPS-stimulated mouse BV2 cells after 20 hrs by Western blot analysis; type: functional, cell-based
[5] = system: BV-2; experiment: Inhibition of iNOS expression in LPS-stimulated mouse BV2 cells at 20 uM after 20 hrs by Western blot analysis; type: functional, cell-based
[6] = system: BV-2; experiment: Inhibition of IkappaB alpha degradation in LPS-induced mouse BV2 cells at 20 uM after 30 mins by Western blot analysis; type: functional, cell-based
[7] = system: BV-2; experiment: Inhibition of NF-kappaB activity in LPS-stimulated mouse BV2 cells at 10 uM after 1 hr by luciferase reporter gene assay; type: cell-based

Structure (SMILES) | IC50 [1] [µM] | Activity [2] | Activity [3] | Activity [4] | Activity [5] | Activity [6] | Activity [7]
C=C(C(=O)O)[C@H]1CC=C(/C=C/C(C)=O)[C@@H](C)CC1 | 136 | – | – | – | – | – | –
C=C1C(=O)O[C@H]2C[C@H](C)C(CCC(C)=O)=CC[C@H]12 | 11.2 | Active | Active | Active | Active | Active | –
C=C1C(=O)O[C@H]2C[C@H](C)C(/C=C/C(C)=O)=CC[C@H]12 | 0.47 | Active | Active | Active | Active | Active | Active
